Reference: patent US8741942B2, “Inhibitors of cellular necrosis” (President and Fellows of Harvard College, priority 2003, dated 2014)
Structures can show the parent of a compound that is named as a salt. Where two headings read alike, the source gives them in different places.

Legend:
[1] = tested on: human FAD-deficient Jurkat T cells challenged with human TNF-alpha; experiment: Anti-necrotic activity, FADD-/- Jurkat T cells challenged with human TNF-alpha; type: cell-based; details: 10 ng/ml human TNFα, CellTiter-Glo ATP assay, read-out: EC50 (μM) for cell viability
Procedure: Compounds were screened for anti-necrotic activity utilizing human FAD-deficient Jurkat T cells challenged with human TNF-alpha. FADD−/− Jurkat cells (Juo P, et al. Cell Growth Differ. 1999, 10(12):797-804) were seeded at the density of 5*10^5 cells/mL into 96 well white plates (Costar) at 100 μL/well. Cells were treated in duplicate with various concentrations of test compounds in the presence or absence of 10 ng/ml human TNFα (Cell Sciences). After 30 hours viability of the cells was determined using luminescent ATP-based cell viability assay (CellTiter-Glo, Promega). Percentage of protection by the compound was calculated as a ratio of the cps (counts per second) value in the well treated with the test compound and TNFα to the cps value in the well treated with the compound alone.

[2] = tested on: human Jurkat T cells challenged with Fas ligand and treated with zVAD; experiment: Anti-necrotic activity, human Jurkat T cells challenged with Fas ligand and treated with zVAD; type: cell-based; details: viability after 36 h by CellTiter ATP assay, read-out: EC50 (μM) for cell viability
Excerpt: (§1) After a cell receives an initial assault either apoptotic, necrotic, or both apoptotic and necrotic mechanisms of cell death may be activated. The present example focuses on the necrosis pathway. Several chemical assaults were used to induce cell death, including exposure to tumor necrosis factor alpha (TNF-α), Fas ligand or β-amyloid protein. Various cell types were also used, including human neuroblastoma cells (SH-SY5Y) and human Jurkat T cells. In order to block the apoptosis mechanism, a general caspase inhibitor, N-benzyloxycarbonyl-valine-alanine-aspartic acid-(OMe) fluoromethyl ketone (zVAD, Polyerino, A. J.; Patterson, S. D. J. Biol. Chem. 1997, 272, 7013-7021), was used. […] Resulting cell death occurs by a necrosis-like mechanism (Holler, N., et al. Nature Immunol. 2000, 1, 489-495; Kawahara, A., et al. J. Cell Biol. 1998, 143, 1353-1360). Experimental compounds were applied to the cells in attempts to rescue them from this necrotic death. Therefore, compounds found to restore cell viability using this protocol are inhibitors of the necrosis pathway.
Compounds were also tested in another necrosis assay utilizing human Jurkat T cells, Fas ligand to induce cell death, and zVAD to inhibit the apoptosis pathway. After 36 h, cell viability was measure by the commercial CellTiter ATP cell viability assay (Promega).
Compounds were screened for anti-necrotic activity utilizing human Jurkat T cells challenged with Fas ligand and treated with zVAD to inhibit the apoptosis pathway.

human B cell line U-937 = experiment: Library screen for inhibition of cell death induced by TNF-α in the presence of zVAD; type: cell-based; details: U-937 cells
Excerpt: as §1
Compound libraries were screened for inhibition of cell death induced by TNF-α in the presence of zVAD in human B cell line U-937.

## CN1C(=O)NC(Cc2c[nH]c3ccccc23)C1=O (centres unmarked) [Compound 893-22, 5-(1H-Indol-3-ylmethyl)-3-methylimidazolidine-2,4-dione]
[1]; Homo sapiens, Jurkat, 30 h
  EC50: 0.439 µM

## CN1C(=O)NC(Cc2c[nH]c3c(Cl)c(Cl)ccc23)C1=O (centres unmarked) [Compound 893-50]
[1]; Homo sapiens, Jurkat, 30 h
  EC50: > 10 µM

## Cc1[nH]c2c(Cl)cccc2c1CC1NC(=O)N(C)C1=O (centres unmarked) [Compound 893-43]
[1]; Homo sapiens, Jurkat, 30 h
  EC50: > 10 µM

## CN1C(=O)N[C@@H](Cc2c[nH]c3c(Cl)cccc23)C1=O [Compound 893-31]
[1]; Homo sapiens, Jurkat, 30 h
  EC50: 0.303 µM

## COCCOc1cccc2c(CC3NC(=O)N(C)C3=O)c[nH]c12 (centres unmarked) [Compound 893-41]
[1]; Homo sapiens, Jurkat, 30 h
  EC50: > 10 µM

## CN1C(=O)C(Cc2c[nH]c3c(Cl)cccc23)N(C)C1=O (centres unmarked) [Compound 893-36, 5-(7-Chloro-1H-indol-3-ylmethyl)-1,3-dimethyl-imidazolidine-2,4-dione]
[1]; Homo sapiens, Jurkat, 30 h
  EC50: > 10 µM

## CN1C(=O)C(Cc2c[nH]c3c(Cl)cc(S(C)(=O)=O)cc23)NC1=S (centres unmarked) [Compound 893-16, 5-(7-Chloro-5-methanesulfonyl-1H-indol-3-ylmethyl)-3-methyl-2-thioxo-imidazolidin-4-one]
other
  melting point: 242 to 245 °C

## CN1C(=O)C(Cc2c[nH]c3c(Cl)cccc23)NC1=S (centres unmarked) [Compound 893-10, 5-(7-Chloro-1H-indol-3-ylmethyl)-3-methyl-2-thioxo-imidazolidin-4-one]
[2]
  EC50: 1.5 µM

## COc1cccc2c(CC3NC(=S)N(C)C3=O)c[nH]c12 (centres unmarked) [Compound 893-13, 5-(7-Methoxy-1H-indol-3-ylmethyl)-3-methyl-2-thioxo-imidazolidin-4-one]
[2]
  EC50: 10.3 µM
other
  melting point: 219 to 222 °C

## CN1C(=O)OC(Cc2c[nH]c3c(Cl)cccc23)C1=O (centres unmarked) [Compound 893-53, 5-(7-chloro-1H-indol-3-ylmethyl)-3-methyl-oxazolidine-2,4-dione]
[1]; Homo sapiens, Jurkat, 30 h
  EC50: 0.359 µM

## CN1C(=O)C(C)(Cc2c[nH]c3ccccc23)NC1=S (centres unmarked) [Compound 893-02, 5-(1H-Indol-3-ylmethyl)-3,5-dimethyl-2-thioxo-imidazolidin-4-one]
other
  melting point: 179 to 182 °C

## CN1C(=O)C(Cc2c[nH]c3cc(Cl)ccc23)NC1=S (centres unmarked) [Compound 893-11, 5-(6-Chloro-1H-indol-3-ylmethyl)-3-methyl-2-thioxo-imidazolidin-4-one]
[2]
  EC50: 67 µM

## CN1C(=O)C(Cc2c[nH]c3c(F)cccc23)NC1=S (centres unmarked) [Compound 893-09, 5-(7-Fluoro-1H-Indol-3-ylmethyl)-3-methyl-2-thioxo-imidazolidin-4-one]
[2]
  EC50: 4 µM
other
  melting point: 217 to 220 °C

## CN1C(=O)N[C@H](Cc2c[nH]c3c(Cl)cccc23)C1=O [Compound 893-32]
[1]; Homo sapiens, Jurkat, 30 h
  EC50: 0.078 µM

## O=C1NC(Cc2c[nH]c3c(Cl)cccc23)CO1 (centres unmarked) [Compound 893-51, 4-(7-chloro-1H-indol-3-ylmethyl)-oxazolidin-2-one]
[1]; Homo sapiens, Jurkat, 30 h
  EC50: > 10 µM

## CN1C(=O)C(Cc2c[nH]c3c(Br)cccc23)NC1=S (centres unmarked) [Compound 893-12, 5-(7-Bromo-1H-indol-3-ylmethyl)-3-methyl-2-thioxo-imidazolidin-4-one]
[2]
  EC50: 1.8 µM
other
  melting point: 230 to 233 °C

## CCN1C(=O)NC(Cc2c[nH]c3ccccc23)C1=O (centres unmarked) [Compound 893-04, 3-Ethyl-5-(1H-indol-3-ylmethyl)-imidazolidine-2,4-dione]
[2]
  EC50: 10 µM

## CN1C(=O)C(Cc2cn(C)c3ccccc23)NC1=S (centres unmarked) [Compound 893-08, 3-Methyl-5-(1-methyl-1H-Indol-3-ylmethyl)-2-thioxo-imidazolidin-4-one]
[2]
  EC50: 35 µM
other
  melting point: 155 to 157 °C

## O=C1NC(=O)C(Cc2c[nH]c3ccccc23)N1 (centres unmarked) (as salt: potassium)
other
  melting point: 229 to 232 °C

## CN1C(=O)C(Cc2c[nH]c3ccccc23)NC1=S (centres unmarked) [Compound 893-01, 5-(1H-Indol-3-ylmethyl)-3-methyl-2-thioxo-imidazolidin-4-one]
[2]
  EC50: 6 µM

## Cc1cccc2c(CC3NC(=O)N(C)C3=O)c[nH]c12 (centres unmarked) [Compound 893-38]
[1]; 30 hours
  EC50: > 10 µM

## COc1ccc2[nH]cc(CC3NC(=S)N(C)C3=O)c2c1 (centres unmarked) [Compound 893-06, 5-(5-Methoxy-1H-Indol-3-ylmethyl)-3-methyl-2-thioxo-imidazolidin-4-one]
other
  melting point: 181 to 185 °C

## CN1C(=O)NC(Cc2c[nH]c3c(F)cccc23)C1=O (centres unmarked) [Compound 893-28]
[1]; Homo sapiens, Jurkat, 30 h
  EC50: 0.324 µM

## CN1C(=O)C(Cc2c[nH]c3ccc(O)cc23)NC1=S (centres unmarked) [Compound 893-07, 5-(5-Hydroxy-1H-Indol-3-ylmethyl)-3-methyl-2-thioxo-imidazolidin-4-one]
other
  melting point: 166 to 168 °C

## CN1C(=O)C(Cc2csc3ccccc23)NC1=S (centres unmarked) [Compound 893-21, 5-Benzo[b]thiophen-3-ylmethyl-3-methyl-2-thioxo-imidazolidin-4-one]
[2]
  EC50: 8 µM
[1]; Homo sapiens, Jurkat, 30 h
  EC50: 0.845 µM

## CN1C(=O)NC(Cc2csc3ccccc23)C1=O (racemic) [Compound 893-39, 5-benzo[b]thiophen-3-ylmethyl-3-methyl-imidazolidine-2,4-dione]
[1]; Homo sapiens, Jurkat, 30 h
  EC50: 5.4 µM

## Cc1cccc2c(CC3NC(=O)N(C)C3=O)c[nH]c12 (centres unmarked) [Compound 893-23]
[1]; 30 hours
  EC50: 0.095 µM

## CN1C(=O)C(Cc2c[nH]c3cc(F)ccc23)NC1=S (centres unmarked) [Compound 893-05, 5-(6-Fluoro-1H-Indol-3-ylmethyl)-3-methyl-2-thioxo-imidazolidin-4-one]
[2]
  EC50: 2.3 µM
other
  melting point: 126 to 129 °C

## CN1CC(Cc2c[nH]c3c(Cl)cccc23)NC1=O (centres unmarked) [Compound 893-52, 4-(7-chloro-1H-indol-3-ylmethyl)-1-methyl-imidazolidin-2-one]
[1]; Homo sapiens, Jurkat, 30 h
  EC50: > 10 µM

## CN1C(=O)NC(Cc2c[nH]c3c(OCc4ccccc4)cccc23)C1=O (centres unmarked) [Compound 893-42]
[1]; Homo sapiens, Jurkat, 30 h
  EC50: > 10 µM

## CN1C(=O)C(Cc2c[nH]c3ccccc23)NC1=S (centres unmarked) [Compound 1]
Human B cell line U-937
  inhibition of cell death induced by TNF-α in the presence of zVAD: inhibitor of necrosis

## CN1C(=O)C(Cc2c[nH]c3ccccc23)N(C)C1=S (centres unmarked) [Compound 893-03, 5-(1H-Indol-3-ylmethyl)-1,3-dimethyl-2-thioxo-imidazolidin-4-one]
other
  melting point: 132 to 135 °C

## CN1C(=O)NC(Cc2c[nH]c3c(Cl)cc(Cl)cc23)C1=O (centres unmarked) [Compound 893-33]
[1]; Homo sapiens, Jurkat, 30 h
  EC50: > 10 µM

## CN1C(=O)NC(Cc2c[nH]c3ccccc23)C1=O (centres unmarked) [Compound 893-20, 3-Methyl-5-(1H-indol-3-ylmethyl)-imidazolidine-2,4-dione]
[2]
  EC50: 6 µM

## CCN1C(=O)NC(Cc2c[nH]c3c(Cl)cccc23)C1=O (centres unmarked) [Compound 893-34]
[1]; Homo sapiens, Jurkat, 30 h
  EC50: 0.154 µM

## COc1cccc2c(CC3NC(=O)N(C)C3=O)c[nH]c12 (centres unmarked) [Compound 893-25]
[1]; Homo sapiens, Jurkat, 30 h
  EC50: 0.229 µM

## CN1C(=O)NC(Cc2cn(C)c3c(Cl)cccc23)C1=O (centres unmarked) [Compound 893-37, 5-(7-Chloro-1-methyl-1H-indol-3-ylmethyl)-3-methyl-imidazolidine-2,4-dione]
[1]; Homo sapiens, Jurkat, 30 h
  EC50: 1.8 µM

## CC(C)N1C(=O)NC(Cc2c[nH]c3c(Cl)cccc23)C1=O (centres unmarked) [Compound 893-44]
[1]; Homo sapiens, Jurkat, 30 h
  EC50: > 10 µM
